Data: patent publication US8389523B2, “Substituted quinoxaline and an agrochemical composition thereof” (Kumiai Chemical Industry Co., Ltd., priority 2007, dated 2013)

Columns and labels:
Format in all cases: in vivo
Parameters in all cases: scale not given here
[1] = test system: Abutilon theophrasti medicus; assay: Herbicidal effects in upland field foliar treatment (Test Example 3); settings: criteria of Table 138; for herbicidal effects on Abutilon theophrasti medicus: 1000 g of the active ingredient per hectare, 14th day after the treatment, wettable powder; for herbicidal effect (index) on Abutilon theophrasti medicus: 1000 g active ingredient per hectare, 14th day after treatment
Outline: (§1)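 Seeds sown in upland soil, grown 2 weeks in greenhouse; whole-plant overhead spray of diluted wettable powder at 1000 g a.i./ha (1000 L/ha); kept in greenhouse; effects graded by criteria at 14 d.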

[2] = test system: Amaranthus viridis L.; assay: as above; settings: criteria of Table 138; for herbicidal effects on Amaranthus viridis L.: 1000 g of the active ingredient per hectare, 14th day after the treatment, wettable powder; for herbicidal effect (index) on Amaranthus viridis L.: 1000 g active ingredient per hectare, 14th day after treatment
Outline: as §1

[3] = test system: Echinochloa crus-galli (L.) P. Beauv. var. crus-galli; assay: as above; settings: criteria of Table 138; for herbicidal effects on Echinochloa crus-galli (L.) P. Beauv. var. crus-galli: 1000 g of the active ingredient per hectare, 14th day after the treatment, wettable powder; for herbicidal effect (index) on Echinochloa crus-galli (L.) P. Beauv. var. crus-galli: 1000 g active ingredient per hectare, 14th day after treatment
Outline: as §1

[4] = test system: Monochoria vaginalis (Burm. f.) Presl var. plantaginea (Roxb.) Solms-Laub.; assay: Herbicidal effects in paddy field soil treatment (Test Example 1); settings: for Herbicidal effects index, Monochoria vaginalis (Burm. f.) Presl var. plantaginea (Roxb.) Solms-Laub.: paddy field soil treatment, 1000 g of the active ingredient per hectare, wettable powder added dropwise on water surface, 21st day after treatment; for herbicidal effect (index) on Monochoria vaginalis (Burm. f.) Presl var. plantaginea (Roxb.) Solms-Laub.: paddy field soil treatment (Test Example 1), criteria of Table 138
Outline: (§2)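 Sow seeds in puddled, leveled paddy soil; waterlog to 3 cm depth. On the following day apply water-diluted wettable powder onto the water surface (1000 g a.i./ha). Grow in greenhouse and assess herbicidal effect at day 21.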

[5] = test system: Scirpus juncoides Roxb. var. ohwianus. T. Koyama; assay: as above; settings: for Herbicidal effects index, Scirpus juncoides Roxb. var. ohwianus. T. Koyama: paddy field soil treatment, 1000 g of the active ingredient per hectare, wettable powder added dropwise on water surface, 21st day after treatment; for herbicidal effect (index) on Scirpus juncoides Roxb. var. ohwianus. T. Koyama: paddy field soil treatment (Test Example 1), criteria of Table 138
Outline: as §2

[6] = test system: Echinochloa oryzicola Vasing; assay: as above; settings: for Herbicidal effects index, Echinochloa oryzicola Vasing: paddy field soil treatment, 1000 g of the active ingredient per hectare, wettable powder added dropwise on water surface, 21st day after treatment; for herbicidal effect (index) on Echinochloa oryzicola Vasing: paddy field soil treatment (Test Example 1), criteria of Table 138
Outline: as §2

[7] = test system: Abutilon theophrasti medicus; assay: Herbicidal effects in upland field soil treatment (Test Example 2); settings: 1000 g active ingredient per hectare, 21st day after treatment, criteria of Table 138
Outline: (§3)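 Upland soil, seeds sown and covered → diluted WP sprayed uniformly onto soil surface (1000 L/ha; 1000 g a.i./ha) → greenhouse → effect scored day 21.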

[8] = test system: Amaranthus viridis L.; assay: as above; settings: 1000 g active ingredient per hectare, 21st day after treatment, criteria of Table 138
Outline: as §3

Row | Compound | herbicidal effects on Abutilon theophrasti medicus [1] | herbicidal effects on Amaranthus viridis L. [2] | herbicidal effects on Echinochloa crus-galli (L.) P. Beauv. var. crus-galli [3] | Herbicidal effects index, Monochoria vaginalis (Burm. f.) Presl var. plantaginea (Roxb.) Solms-Laub. [4] | Herbicidal effects index, Scirpus juncoides Roxb. var. ohwianus. T. Koyama [5] | Herbicidal effects index, Echinochloa oryzicola Vasing [6] | herbicidal effect (index) on Abutilon theophrasti medicus [7] | herbicidal effect (index) on Amaranthus viridis L. [8] | herbicidal effect (index) on Abutilon theophrasti medicus [1] | herbicidal effect (index) on Amaranthus viridis L. [2] | herbicidal effect (index) on Echinochloa crus-galli (L.) P. Beauv. var. crus-galli [3] | herbicidal effect (index) on Monochoria vaginalis (Burm. f.) Presl var. plantaginea (Roxb.) Solms-Laub. [4] | herbicidal effect (index) on Scirpus juncoides Roxb. var. ohwianus. T. Koyama [5] | herbicidal effect (index) on Echinochloa oryzicola Vasing [6]
1 | COc1cc(-n2c(=O)c(C(=O)C3=C(O)CCCC3=O)nc3cc(F)ccc32)cc(OC)c1OC [II-238] | 5 | 5 | 5 | 5 | 5 | 5 | 5 | 5 |  |  |  |  |  | 
2 | CCCCn1c(=O)c(C(=O)C2=C(O)CCCC2=O)nc2ccccc21 [Compound I-15] |  |  |  | 5 | 5 | 5 | 5 | 5 | 5 | 5 | 5 |  |  | 
3 | O=C1CCCC(O)=C1C(=O)c1nc2ccccc2n(-c2cnccn2)c1=O [I-199] |  |  |  | 5 | 5 | 5 | 5 | 5 | 5 | 5 | 5 |  |  | 
4 | COCn1c(=O)c(C(=O)C2=C(O)CCCC2=O)nc2ccccc21 [I-49] |  |  |  | 5 | 5 | 5 | 5 | 5 | 5 | 5 | 4 |  |  | 
5 | COCC(C)n1c(=O)c(C(=O)C2=C(O)CCCC2=O)nc2cccnc21 (stereo not drawn) [III-90] | 5 | 5 | 5 | 5 | 5 | 5 | 5 | 5 |  |  |  |  |  | 
6 | O=C1CCCC(O)=C1C(=O)c1nc2cccnc2n(Cc2ccccc2)c1=O [III-107] | 5 | 5 | 4 | 5 | 5 | 5 | 4 | 5 |  |  |  |  |  | 
7 | O=C1CCCC(O)=C1C(=O)c1nc2ccccc2n(-c2ccc3c(c2)OC(F)(F)O3)c1=O [I-207] |  |  |  | 5 | 5 | 4 | 5 | 5 | 5 | 5 | 5 |  |  | 
8 | CCCCn1c(=O)c(C(=O)C2=C(O)CCCC2=O)nc2c(Cl)cccc21 [I-364] |  |  |  | 5 | 5 | 4 | 5 | 5 | 5 | 5 | 5 |  |  | 
9 | Cn1c(=O)c(C(=O)C2=C(O)CCCC2=O)nc2ccc(Cl)cc21 [I-227] |  |  |  | 5 | 5 | 5 | 5 | 5 | 5 | 5 | 4 |  |  | 
10 | CCCn1c(=O)c(C(=O)C2=C(O)CCCC2=O)nc2cccnc21 [III-12] | 5 | 5 | 4 | 5 | 5 | 5 | 4 | 5 |  |  |  |  |  | 
11 | O=C1CCCC(O)=C1C(=O)c1nc2cccnc2n(-c2ccccc2OC(F)(F)F)c1=O [IV-100] | 5 | 5 | 5 |  |  |  | 5 | 5 |  |  |  | 5 | 5 | 5
12 | O=C(C1=C(O)C2CCC(C2)C1=O)c1nc2ccccc2n(COCC(F)(F)F)c1=O (stereo not drawn) [I-62] |  |  |  | 5 | 5 | 5 | 5 | 5 | 5 | 5 | 5 |  |  | 
13 | O=C1CCCC(O)=C1C(=O)c1nc2cccnc2n(-c2cccc(F)c2)c1=O [IV-7] | 5 | 5 | 5 | 5 | 5 | 5 | 5 | 5 |  |  |  |  |  | 
14 | CCc1ccc(-n2c(=O)c(C(=O)C3=C(O)CCCC3=O)nc3cccnc32)cc1 [IV-24] | 4 | 5 | 5 | 5 | 5 | 5 | 5 | 5 |  |  |  |  |  | 
15 | Cc1ccc(-n2c(=O)c(C(=O)C3=C(O)CCCC3=O)nc3cccnc32)cc1F [IV-222, 4-(3-fluoro-4-methylphenyl)-2-(2-hydroxy-6-oxo-1-cyclohexenecarbonyl)-pyrido[2,3-b]pyrazin-3 (4H)-one] | 5 | 5 | 5 |  |  |  | 5 | 5 |  |  |  | 5 | 5 | 5
16 | COc1ccc(-n2c(=O)c(C(=O)C3=C(O)CCCC3=O)nc3ccccc32)c(OC)c1OC [II-218] | 5 | 5 | 4 | 5 | 5 | 4 | 5 | 5 |  |  |  |  |  | 
17 | COc1c(F)cc(-n2c(=O)c(C(=O)C3=C(O)CCCC3=O)nc3ccccc32)cc1F [II-220] | 5 | 5 | 5 | 5 | 5 | 5 | 5 | 5 |  |  |  |  |  | 
18 | O=C1CCCC(O)=C1C(=O)c1nc2cccnc2n(-c2ccc(OC(F)F)cc2)c1=O [IV-95] | 5 | 5 | 5 |  |  |  | 5 | 5 |  |  |  | 5 | 5 | 5
